Data set [1] in a line: Metabolic stability in hepatocytes, CD-1 mice. It is filed as in vitro ADME. Particulars: mouse, cryopreserved hepatocytes, CD-1 mice hepatocytes. As to the method:
Metabolic stabilities of assay compound in hepatocytes of CD-1 mice, SD rats, beagle dogs, cynomolgus monkeys, and human were assayed, respectively.
Several 96-well sample precipitation plates were prepared and named T0, T15, T30, T60, T90, T120, T0-MC, T120-MC and blank substrates, respectively. The recovery medium and incubation medium were taken out in advance and placed in a 37° C. water bath for pre-heating. Cryopreserved hepatocytes were removed from the liquid nitrogen tank and immediately immersed in a 37° C. water bath (approximately 90 seconds). After the cryopreserved hepatocytes had thawed and loosened, they were poured into a centrifuge tube containing 40 mL of recovery medium, and the tube was gently inverted to allow the cells to be resuspended in the recovery medium. The cells were centrifuged at 100×g at room temperature for 5 min, and the supernatant was removed. The hepatocytes were resuspended in an appropriate volume of incubation medium, and the cell viability was calculated by Trypan Blue staining method. 198 μL of hepatocyte suspension (0.51×10^6 cells/mL) was added to the preheated incubation plate. For the culture medium control group, 198 μL of hepatocyte-free incubation medium was added to T0-MC and T120-MC incubation plate. All incubation plates were pre-incubated in a 37° C. incubator for 10 minutes. Then 2 μL of working solutions of the assay sample and the control compound were added, respectively, and the mixture was mixed well. The incubation plate was immediately put into the shaker in the incubator, and the reaction was initiated while starting the timer. For each time point of each compound, 2 duplicate samples were prepared. The incubation conditions were 37° C., saturated humidity, and 5% CO2. […] All samples were mixed well and analyzed by LC/MS/MS.

Data set [2] is described as follows: Stability in whole blood, beagle dogs. The class given is in vitro ADME. Particulars: 5 μM, 37° C. As for the experimental part:
Stabilities of the assay compound in whole blood of CD-1 mice, SD rats, beagle dogs and cynomolgus monkeys were assayed, respectively. On the day of the assay or the day before the assay, fresh whole blood from CD-1 mice, SD rats, beagle dogs, and cynomolgus monkeys was collected using anticoagulant EDTA-K2. Prior to the start of the assay, the whole blood was mixed with PBS in 1:1 (v: v) and the mixture was preheated in a 37° C. water bath for 10 to 20 minutes. 96-well incubation plates were prepared and named T0, T30, T60, […], respectively. In the corresponding incubation plates, including T0, T30, T60 and […] incubation plates, 2 μL of working solutions of the compound or the control compound were mixed with 98 μL of blank whole blood of mice, rats, canines, monkeys and human in duplicate. All samples were incubated in a 37° C. water bath. The final incubation concentration of the compound was 5 μM and the final incubation concentration of the control compound was 2 μM. At the end of incubation for each time point, the corresponding incubation plate was removed and 100 μL of ultrapure water was immediately added to the corresponding sample wells, and mixed well. 800 μL of a solution of 200 ng/mL tolbutamide and labetalol in acetonitrile was added to precipitate the protein. […] 150 μL of supernatant was taken out and analyzed by LC/MS/MS.

Data set [3] concerns human pancreatic cancer Mia PaCa-2 cells. Put plainly: Pharmacodynamics in vivo, subcutaneously transplanted Mia PaCa-2 tumor model. Further details: species or system Balb/c Nude mice. Particulars: day 22 of administration. As for the experimental part: Assay on pharmacodynamics in vivo in a subcutaneously transplanted tumor model of human pancreatic cancer Mia PaCa-2 cells in Balb/c Nude mice
Cell culture: Human pancreatic cancer Mia PaCa-2 cells (ATCC-CRL-1420) were cultured in monolayer in vitro in DMEM medium with 10% fetal calf serum and 2.5% horse serum in a 37° C., 5% carbon dioxide incubator. Cells were passaged by routine digestion with trypsin-EDTA twice a week. When the cell saturation reached 80%-90% and the cell number met the requirement, the cells were harvested, counted, and resuspended in an appropriate amount of PBS. Matrigel was added in a ratio of 1:1 to obtain a cell suspension with a cell density of 25×10^6 cells/mL.
Cell inoculation: 0.2 mL (5×10^6 cells/mouse) of Mia PaCa-2 cells (plus Matrigel, 1:1 by volume) were subcutaneously inoculated into the right back of each mouse. When the average tumor volume reached 190 mm^3, mice were randomized into groups based on tumor volume and administration was initiated according to the protocol in Table 15.
Tumor diameter was measured with vernier caliper twice a week. The calculation formula of tumor volume was: V=0.5a×b^2, where a and b represent the long and short diameters of the tumor, respectively.
The anti-tumor efficacy of compound was evaluated by TGI (%) or relative tumor proliferation rate T/C (%). Relative tumor proliferation rate T/C (%)=TRTV/CRTV×100% (TRTV: RTV in a treatment group; CRTV: RTV in a negative control group). The relative tumor volume (RTV) was calculated according to results of tumor measurement, and the calculation formula was RTV=Vt/V0, where V0 was average tumor volume measured at the time of administration by group (i.e., D0), and Vt was average tumor volume at the time of a certain measurement. For TRTV and CRTV, data on the same day were used.
TGI (%) reflected tumor growth inhibition rate. TGI(%)=[(1−(average tumor volume at the end of administration of a treatment group−average tumor volume at the beginning of administration of the treatment group))/(average tumor volume at the end of treatment of a vehicle control group−average tumor volume at the beginning of treatment of the vehicle control group)]×100%.

Structures are written as SMILES.

Usually half-life stands for the time in which the quantity being followed falls by half. A higher half-life goes with slow loss. For orientation: T/C means the ratio of treated to control. A word on the TGI: it is the reduction of tumour growth relative to the control group. High values mean a stronger effect on the tumour, low ones a weaker effect on the tumour. The molecule `C=C(F)C(=O)N1CCN(c2nc(OC[C@@]34CCCN3C[C@H](F)C4)nc3c2CO[C@H](c2c(F)c(N)cc(C)c2C(F)(F)F)C3)C[C@@H]1CC#N` [Compound of formula (I)] returned a half-life at 1 μM in data set [1] of 9.5 min. Further, in data set [1] (read-out: CLint(hep)), the hepatocyte CLint at 1 μM turned out to be 146 µL/min/1e6 cells. For the same molecule, the CLint scaled at 1 μM in data set [1] (read-out: CLint(liver)) came to 1740 mL/min/kg. Further, the “Detection of assay compound content within 240 min” value in data set [2] is 102%. Also, in data set [3] (10 mg/kg PO QD), the Average tumor volume stood at 249.87 mm^3, the T/C is given as 12.39% and the TGI is 93.06%. In addition, in data set [3] (30 mg/kg PO QD), the Average tumor volume stood at 124.14 mm^3, the T/C was 6.16% and the TGI is 99.64%.

The values above are taken from patent publication US20250129102A1, “CRYSTAL FORM OF PYRIMIDINE HETEROCYCLIC COMPOUND AND PREPARATION METHOD THEREFOR” (D3 Bio (Wuxi) Co., Ltd., priority 2021, published 2025).
